≈ marks a conversion by molar mass, not a printed value. Where “and” joins values, the source holds several entries; their conditions need not be identical. Equal values may be shown once. Non-standard residues stand in square brackets, D forms with d. Residues, ends and D or L forms follow the SMILES beside them. *: point of attachment. Leu(ol) = CC(C)C[C@H](N)CO; Octanoyl = CCCCCCCC(=O)*; Aib = CC(C)(N)C(=O)O
How the values were obtained:
[1] = system: A. baumannii SI-648 (OXA-23, OXA-51-like); settings: MHB, 5 × 10^5 CFU/mL, 18 h, 35 °C, triplicate
Procedure: (§1) The minimum inhibitory concentration (MIC) and the minimum bactericidal concentration (MBC) of the compounds were determined in triplicate using Mueller–Hinton broth (MHB). […] Therefore, we decided to dissolve all peptides in DMSO to a final concentration of 25 mg/mL, for consistency. The bacteria inoculum was 5 × 10^5 CFU/mL, as recommended by CLSI (Document M07-A10, 2015). […] Reference-type strains, including representatives of both Gram-positive bacteria (Bacillus subtilis ATCC 6633, Enterococcus faecalis ATCC 29212, Staphylococcus aureus ATCC 25923, the methicillin-resistant Staphylococcus aureus ATCC 43300 (MRSA), Streptococcus pyogenes ATCC 12344) and Gram-negative bacteria (Escherichia coli CCUGT, Klebsiella pneumoniae ATCC 13833, Pseudomonas aeruginosa ATCC 27853, and Acinetobacter baumannii ATCC 17978), were acquired from ATCC or CCUG culture collections. Other antibiotic-resistant clinical isolates were present in our collection at the University Teaching Hospital (Azienda Ospedaliero-Universitaria Senese ‘Santa Maria alle Scotte’) in Siena, Tuscany, Italy. Specifically, MDR carbapenem-hydrolyzing class D β-lactamase-producing Acinetobacter baumannii and metallo-β-lactamase-producing Pseudomonas aeruginosa were used in this study (Table 4).

[2] = system: A. baumannii SI-310 (OXA-24); settings: colistin-resistant isolate; MHB, 5 × 10^5 CFU/mL, 18 h, 35 °C, triplicate
Procedure: as §1

[3] = system: P. aeruginosa VR-143/97 (VIM-1); settings: MHB, 5 × 10^5 CFU/mL, 18 h, 35 °C, triplicate
Procedure: as §1

[4] = system: S. aureus ATCC 43300 (MRSA); settings: MHB, 5 × 10^5 CFU/mL, 18 h, 35 °C, triplicate
Procedure: as §1

[5] = system: P. aeruginosa 101/1477 (IMP-1); settings: MHB, 5 × 10^5 CFU/mL, 18 h, 35 °C, triplicate
Procedure: as §1

[6] = system: P. aeruginosa VA-182/00 (VIM-2); settings: MHB, 5 × 10^5 CFU/mL, 18 h, 35 °C, triplicate
Procedure: as §1

[7] = system: A. baumannii SI-12 (OXA-23); settings: MHB, 5 × 10^5 CFU/mL, 18 h, 35 °C, triplicate
Procedure: as §1

[8] = system: P. aeruginosa 506/99 (VIM-2); settings: MHB, 5 × 10^5 CFU/mL, 18 h, 35 °C, triplicate
Procedure: as §1

[9] = system: Bacillus subtilis ATCC 6633; settings: MHB, 5 × 10^5 CFU/mL, 18 h, 35 °C, triplicate
Description: (§2) The antibacterial activity of the peptides was initially assessed on a panel of representative Gram-positive and Gram-negative organisms of high clinical relevance and commonly responsible for bacterial infections in both animals and humans. Bacillus subtilis ATCC 6633 (Bsu) was also included as a rod-shaped model Gram-positive organism. This first panel comprised: Enterococcus faecalis ATCC 29212 (Efa); Streptococcus pyogenes ATCC 12344 (Spy); and Staphylococcus aureus ATCC 25923 (Sau); Gram-negative: Escherichia coli CCUGT (Eco), Klebsiella pneumoniae ATCC 13833 (Kpn), Acinetobacter baumannii ATCC 17978 (Aba), and Pseudomonas aeruginosa ATCC 27853 (Pae) (Table 2). Both the minimum inhibitory concentration (MIC, Table 2) and the minimum bactericidal concentration (MBC, Table S1, Supporting Material) were determined.
as §1

[10] = system: Pseudomonas aeruginosa ATCC 27853; settings: MHB, 5 × 10^5 CFU/mL, 18 h, 35 °C, triplicate
Description: as §2, §1

[11] = system: Klebsiella pneumoniae ATCC 13833; settings: MHB, 5 × 10^5 CFU/mL, 18 h, 35 °C, triplicate
Description: as §2, §1

[12] = system: Enterococcus faecalis ATCC 29212; settings: MHB, 5 × 10^5 CFU/mL, 18 h, 35 °C, triplicate
Description: as §2, §1

[13] = system: Acinetobacter baumannii ATCC 17978
Description: as §2, §1

[14] = system: Streptococcus pyogenes ATCC 12344; settings: MHB, 5 × 10^5 CFU/mL, 18 h, 35 °C, triplicate
Description: as §2, §1

Escherichia coli CCUGT = settings: MHB, 5 × 10^5 CFU/mL, 18 h, 35 °C, triplicate
Description: as §2, §1

[15] = system: Staphylococcus aureus ATCC 25923; settings: MHB, 5 × 10^5 CFU/mL, 18 h, 35 °C, triplicate
Description: as §2, §1

[16] = system: blood agar plate (Columbia CNA Agar); experiment: Hemolysis on blood agar plate; settings: 35 ± 2 °C, 24 h
Procedure: Hemolysis zones were visually determined and measured. […] For two additional peptides (6 and 15), only a small hemolysis zone (diameter 4–5 mm) was visible, as compared to that of the positive control (Triton X-100, 13 mm).
Briefly, 2 μL of each peptide solution in DMSO (25 mg/mL), corresponding to 50 μg, was spotted on the surface of a blood agar plate (Columbia CNA Agar, Becton Dickinson Italia S.p.A., Florence, Italy). The plate was then incubated at 35 ± 2 °C for 24 h and visually inspected for the presence of hemolysis zones (see Figure S13, Supplementary Material). The experiment was performed in triplicate. Table 2 reports the average value of the diameter of hemolysis zones measured in each individual experiment. Triton X-100 was used as a positive control (diameter of the hemolysis zone: 13 mm), while DMSO was used as a negative control.
Figure S13. Implementation of the hemolysis test as described in Bechlars et al.. After spotting
2 µL (50 µg) of each compound at a random location on the blood agar plate and incubation at 35 ±
2 °C for 24 h, the plates were manually inspected for the presence of hemolysis zones. Triton X-100
and DMSO were used as the positive and negative controls, respectively. Results were interpreted
(1 picture or pasted object on this page, not shown here)

[17] = MHB, 5 × 10^5 CFU/mL, 18 h, 35 °C, triplicate

Row | Compound | MBC S. aureus ATCC 43300 (MRSA) [4] [mg/L] | MIC S. aureus ATCC 43300 (MRSA) [4] [mg/L] | MBC Bsu [9] [mg/L] | MIC Bsu [9] [mg/L] | MIC Pae [10] [mg/L] | MIC Kpn [11] [mg/L] | MBC Efa [12] [mg/L] | MIC Efa [12] [mg/L] | MIC Aba [13, 17] [mg/L] | MBC Spy [14] [mg/L] | MIC Spy [14] [mg/L] | MIC Eco (Escherichia coli CCUGT) [mg/L] | MBC Sau [15] [mg/L] | MIC Sau [15] [mg/L] | other results
1 | 1-Oct-Aib-Gly-Leu-Aib-Lys-Lys-Leu-Aib-Lys-Ile-Leu-NH2 [Peptide 5b] | 2 | 2 | 16 | 2 | 16 | 32 | 16 | 2 | 4 | 32 | 2 | 32 | 32 | 8 | MBC A. baumannii SI-648 (OXA-23, OXA-51-like) [1]: 4 mg/L; MIC A. baumannii SI-648 (OXA-23, OXA-51-like) [1]: 4 μg/mL and 4/4 μg/mL; MBC A. baumannii SI-310 (OXA-24) [2]: 4 mg/L; MIC A. baumannii SI-310 (OXA-24) [2]: 2 mg/L; MBC P. aeruginosa VR-143/97 (VIM-1) [3]: 32 mg/L; MIC P. aeruginosa VR-143/97 (VIM-1) [3]: 16 mg/L and 8 mg/L; MBC P. aeruginosa 101/1477 (IMP-1) [5]: 8 mg/L; MIC P. aeruginosa 101/1477 (IMP-1) [5]: 8 mg/L; MBC P. aeruginosa VA-182/00 (VIM-2) [6]: 32 mg/L; MIC P. aeruginosa VA-182/00 (VIM-2) [6]: 8 mg/L; MBC A. baumannii SI-12 (OXA-23) [7]: 8 mg/L; MIC A. baumannii SI-12 (OXA-23) [7]: 4 mg/L; MBC P. aeruginosa 506/99 (VIM-2) [8]: 32 mg/L; MIC P. aeruginosa 506/99 (VIM-2) [8]: 8 mg/L; MBC Pae [10]: 128 mg/L; MBC Kpn [11]: 128 mg/L; MBC Aba [13, 17]: 32 mg/L; MIC against A. baumannii, in molar units ([13]; corresponding to 2 and 8 μg/mL): 1.8 to 7.2 µM; MBC Eco (Escherichia coli CCUGT): 128 mg/L
2 | CCCCCCCC(=O)NC(C)(C)C(=O)NCC(=O)N[C@@H](CC(C)C)C(=O)NC(C)(C)C(=O)N[C@@H](CCCCN)C(=O)NC(C)(C)C(=O)N[C@@H](CC(C)C)C(=O)NC(C)(C)C(=O)NCC(=O)N[C@H](C(=O)N[C@H](CO)CC(C)C)[C@@H](C)CC [Peptide 6, 1-Oct-Aib-Gly-Leu-Aib-Lys-Aib-Leu-Aib-Gly-Ile-Lol] (Octanoyl-[Aib]GL[Aib]K[Aib]L[Aib]GI[Leu(ol)]) | 8 (≈ 6.86 µM) | 4 (≈ 3.43 µM) | 16 (≈ 13.7 µM) | 8 (≈ 6.86 µM) | > 128 | > 128 | 8 (≈ 6.86 µM) | 8 (≈ 6.86 µM) | > 128 | 8 (≈ 6.86 µM) | 8 (≈ 6.86 µM) | > 128 | 16 (≈ 13.7 µM) | 8 (≈ 6.86 µM) | Hemolysis (class) ([16]; 50 μg peptide (2 μL of 25 mg/mL in DMSO) spotted on blood agar, visual, triplicate): +; Hemolysis (d, diameter of hemolysis zone) ([16]; 50 μg spotted on blood agar, average of triplicate): 4 mm

Reference: PMC10178204, “Peptaibol Analogs Show Potent Antibacterial Activity against Multidrug Resistant Opportunistic Pathogens” (International Journal of Molecular Sciences, 2023)
